Values quoted from earlier work, collected in patent US20070225340A1, “Phenyl Compounds And Their Use In The Treatment Of Conditions Mediated By The Action Of Pge2 At The Ep1 Receptor” (Glaxo Group Limited, priority 2004, published 2007).

Legend:
EP1 receptor [1] = target: T1, EP1 receptor (Rattus norvegicus, UniProt P70597); parameters: host or cells: living rodent (in vivo pain model); conditions: rodent, post-operative pain; Anesthesia and Analgesia 2001, 92, 233-238
T1 sequence (P70597 1-405): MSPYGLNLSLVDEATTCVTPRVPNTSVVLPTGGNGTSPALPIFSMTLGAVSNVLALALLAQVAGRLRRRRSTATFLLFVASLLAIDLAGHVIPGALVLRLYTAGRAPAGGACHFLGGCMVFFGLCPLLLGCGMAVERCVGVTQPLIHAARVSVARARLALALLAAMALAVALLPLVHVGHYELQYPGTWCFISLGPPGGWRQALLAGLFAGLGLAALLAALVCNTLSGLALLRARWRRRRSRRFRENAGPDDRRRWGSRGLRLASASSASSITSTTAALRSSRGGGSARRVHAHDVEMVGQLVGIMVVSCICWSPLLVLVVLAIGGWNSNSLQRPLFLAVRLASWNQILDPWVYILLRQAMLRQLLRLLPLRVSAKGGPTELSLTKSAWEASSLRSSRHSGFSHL

EP1 receptor [2] = target: T1, EP1 receptor; parameters: host or cells: living rat (in vivo pain model); conditions: chronic constriction injury, Anesthesia and Analgesia 2001, 93, 1012-7

## Cc1cc(Cl)ccc1S(=O)(=O)NC[C@H]1C2CCC(CC2)[C@@H]1/C=C\CCCC(=O)O [ONO-8711]
EP1 receptor [1]
  effect on mechanical hyperalgesia: inhibits mechanical hyperalgesia
EP1 receptor [2]
  effect on hyperalgesia and allodynia: reduces hyperalgesia and allodynia
